# Experimental data published in patent US20050059641A1, “Compositions and methods for treating and preventing cancer using analogs of vitamin D” (Aphios Corporation, priority 2003, published 2005).
# Entries after “also recorded” stand apart in the source; their conditions may differ.
# Columns and labels:
# [1] = target: VDR (Homo sapiens, UniProt P11473); details: compared with 1,25(OH)2D3; cited from earlier work
# [2] = in vivo toxicity study in CD-1 mice; details: CD-1 mice; for Body Weight On Day 0: beginning of the experiment
# From the text: Investigators completed an in vivo study to determine the toxicity of 25-OH-D3-3-BE at various doses in CD-1 mice. The animals (average weight ˜30 gms) were maintained with normal chow and water ad libitum. […] At the end of the experiment the animals were lightly anesthetized and blood collected after decapitation for serum calcium-analysis. […] Frequency of administration, body weights at the beginning and at the end of the experiment and serum calcium values are given in the accompanying Table 1.
# [3] = tested on: PC-3 cells; experiment: DNA-fragmentation analysis; type: cell-based, human; details: 250 nM, 10 hours
# Description: (a) DNA-fragmentation analysis: PC-3 cells (2×10^6) were treated with 250 nM of 1,25(OH)2D3, 25-OH-D3 or 25-OH-D3-3-BE for 10 hours. The cells were harvested and lysed in 0.5 ml lysis buffer (20 mM Tris-HCl, 10 mM EDTA, 0.5% Triton X-100, pH 8.0), and DNA was extracted using phenol-chloroform procedure. The DNA was resuspended in 0.1 ml of 20 mM Tris-HCl, pH 8 and treated with Rnase, followed by electrophoresis on 1.2% agarose gel in TAE. The DNA was visualized under UV light after ethidinium bromide staining.
# [4] = tested on: prostate tumor induced with PC-3 cells; experiment: in vivo effect in mice bearing prostate tumor induced with PC-3 cells; design: species or system male SCID mice; details: SCID mice with PC-3 tumor; 25-OH-D3 10 μg or 25-OH-D3-3-BE 13.2 μg (molar equivalent) i.p. in alternate days for two weeks
# Description: Sesame oil solutions (200 μl) of either 25-OH-D3 (10 μg) or 25-OH-D3-3-BE (13.2 μg, molar equivalent of 25-OH-D3) or vehicle were administered i.p. in alternate days for two weeks. […] At the end, mice were anesthetized, tumors were removed, and blood was collected. Tumors were embedded in paraffin and sections were made.
# [5] = tested on: breast cancer cells (MCF-7); experiment: microscopic examination of the cells, MCF-7; type: cell-based; details: MCF-7, treated for sixteen (16) hours
# [6] = tested on: PZ-HPV-7 (papillovirus immortalized normal prostate cells); experiment: 3H-thymidine incorporation assay, PZ-HPV-7; type: cell-based; details: PZ-HPV-7 cells; for effect on proliferation (3H-thymidine incorporation): 10^−6M, 16 hours; for antiproliferative effect (3H-thymidine incorporation): compared to 1,25(OH)2D3
# Description: (§1) It is well known that secretory epithelial cells are the main sites for the development of cancers of the breast, prostate and various other organs.
# (§2) The inventors further studied the effect of 1,25(OH)2D3-3-BE on LNCAP cells (most closely resembling human hormone-sensitive prostate cancer) and PZ-HPV-7 cells (immortalized normal prostate cells). The cells were treated with ethanol or 10^−6M of either 1,25(OH)2D3 or 1,25(OH)2D3-3-BE for 16 hours and the effect on proliferation was determined by ^3H-thymidine incorporation assays as described earlier. The viable cell count was determined by Methylene blue assay. The Methylene blue assay is a simple colorimetric method that is widely used to determine the viable cell count.
# (§3) In a study, investigators compared the growth-inhibitory effects of 25-OH-D3-3-BE and 1,25(OH)2D3 in several VDR-positive epithelial cells, e.g. keratinocytes (primary skin cells), MCF-7 cells (breast cancer cells), hormone-sensitive LNCaP and hormone-refractory PC3 cells (prostate cancer cells), and PZ-HPV-7 (papillovirus immortalized normal prostate cells) by using ^3H-thymidine incorporation assays (FIGS. 14-19).
# [7] = tested on: immortalized normal prostate cells (PZ-HPV-7); experiment: microscopic examination of the cells, PZ-HPV-7; type: cell-based; details: PZ-HPV-7, treated for sixteen (16) hours
# [8] = tested on: LNCaP cells (prostate cancer cells); experiment: 3H-thymidine incorporation assay, LNCaP; type: cell-based, human; details: for effect on proliferation (3H-thymidine incorporation): 10^−6M, 16 hours; for dose-dependency of antiproliferative effect: 10^−8-10^−6M; for antiproliferative effect (3H-thymidine incorporation): compared to 1,25(OH)2D3
# Description: as §2
# The inventors studied dose-dependency of antiproliferation and cytotoxicity by 1,25(OH)2D3 or 1,25(OH)2D3-3-BE in LNCaP cells. The cells were treated with 10^−8-10^−6M of either 1,25(OH)2D3 or 1,25(OH)2D3-3-BE or ethanol (used as a control). The effect on proliferation and viable cell count were determined by using ^3H-thymidine incorporation and Methylene blue assay respectively. […]
# as §3
# [9] = tested on: MCF-7 cells (breast cancer cells); experiment: 3H-thymidine incorporation assay, MCF-7; type: cell-based; details: compared to 1,25(OH)2D3
# From the text: as §1
# It is well-established that the biological properties of 1,25(OH)2D3 and its analogs are mediated by their interaction with VDR.
# as §3
# [10] = tested on: hormone-refractory PC3 cells; experiment: microscopic examination of the cells, PC3; type: cell-based, human; details: PC3, treated for sixteen (16) hours
# [11] = tested on: primary cultures of normal human keratinocytes; experiment: microscopic examination of the cells, keratinocytes; type: cell-based; details: treated for sixteen (16) hours
# [12] = tested on: PC3 cells (prostate cancer cells); experiment: 3H-thymidine incorporation assay, PC3; type: cell-based, human; details: for antiproliferative effect (3H-thymidine incorporation): PC3 cells, compared to 1,25(OH)2D3
# From the text: as §1, §3
# Since 25-OH-D3-3-BE contains an ester bond, its hydrolysis by esterases in growing cells would produce equimolar amounts of bromoacetic acid (BAA) and 25-OH-D3 (see, FIG. 21).
# Furthermore, fetal calf serum (FCS) contains many proteins, including vitamin D-binding protein, which potentially could absorb 25-OH-D3-3-BE before it reacts with VDR. Typically, the assays described herein were carried out in a media containing 10% FCS (after serum-depriving the cells for 15 hours).
# [13] = tested on: hormone-sensitive LNCaP cells; experiment: microscopic examination of the cells, LNCaP; type: cell-based, human; details: treated for sixteen (16) hours
# [14] = tested on: keratinocytes (primary cells); experiment: 3H-thymidine incorporation assay, keratinocytes; type: cell-based, human; details: compared to 1,25(OH)2D3
# From the text: as §1, §3
# [15] = tested on: intestinal cancer Caco-2 cells; details: compared with 1,25(OH)2D3; cited from earlier work
# [16] = tested on: VDR-regulated genes; details: higher level sustained for a longer duration at a lower concentration of the analog; cited from earlier work
# [17] = tested on: PZ-HPV-7 cells; experiment: Methylene blue assay, viable cell count, PZ-HPV-7; type: cell-based; details: 10^−6M, 16 hours
# [18] = target: vitamin D receptor, VDR (Homo sapiens, UniProt P11473); details: cited from earlier work
# [19] = tested on: LNCaP cells; experiment: Methylene blue assay, viable cell count, LNCaP; details: 10^−6M, 16 hours
# Description: as §2
# The inventors studied dose-dependency of antiproliferation and cytotoxicity by 1,25(OH)2D3 or 1,25(OH)2D3-3-BE in LNCaP cells. The cells were treated with 10^−8-10^−6M of either 1,25(OH)2D3 or 1,25(OH)2D3-3-BE or ethanol (used as a control). The effect on proliferation and viable cell count were determined by using ^3H-thymidine incorporation and Methylene blue assay respectively.
# VDR, sequence (P11473 whole entry, species assumed): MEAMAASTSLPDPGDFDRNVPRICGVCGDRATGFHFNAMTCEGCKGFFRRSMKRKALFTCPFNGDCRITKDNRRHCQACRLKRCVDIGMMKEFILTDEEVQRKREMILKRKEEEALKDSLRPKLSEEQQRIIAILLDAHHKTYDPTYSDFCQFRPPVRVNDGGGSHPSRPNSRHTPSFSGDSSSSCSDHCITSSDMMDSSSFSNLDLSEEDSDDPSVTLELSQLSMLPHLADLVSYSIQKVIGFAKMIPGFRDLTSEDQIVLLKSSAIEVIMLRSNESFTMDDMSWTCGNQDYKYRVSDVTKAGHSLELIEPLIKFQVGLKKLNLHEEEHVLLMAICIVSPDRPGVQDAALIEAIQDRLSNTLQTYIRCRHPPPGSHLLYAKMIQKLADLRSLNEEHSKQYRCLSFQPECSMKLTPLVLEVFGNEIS
# vitamin D receptor, VDR, sequence (P11473 whole entry): as the sequence (P11473 whole entry, species assumed) above
SMILES,DNA fragmentation (apoptosis) [3],microscopic appearance of the cells [5],effect on proliferation (3H-thymidine incorporation) [6],antiproliferative effect (3H-thymidine incorporation) [6],microscopic appearance of the cells [7],effect on proliferation (3H-thymidine incorporation) [8],dose-dependency of antiproliferative effect [8],antiproliferative effect (3H-thymidine incorporation) [8],antiproliferative effect (3H-thymidine incorporation) [9],microscopic appearance of the cells [10],microscopic appearance of the cells [11],antiproliferative effect (3H-thymidine incorporation) [12],microscopic appearance of the cells [13],antiproliferative effect (3H-thymidine incorporation) [14],other results
"C=C1CC[C@H](O)C/C1=C/C=C1\CCC[C@]2(C)[C@@H]([C@H](C)CCCC(C)(C)O)CC[C@@H]12 [25-OH-D3, 25-hydroxyvitamin D3, reference compound]",no such DNA cleavage was observed,–,–,–,–,–,–,–,–,–,–,–,–,–,"VDR-binding ability [1]: significantly low VDR-binding ability; Body Weight on Day 12 ([2]; 3.3 μg/kg intraperitoneally): 33.5 ± 1 grams; Body Weight On Day 0 ([2]; 3.3 μg/kg intraperitoneally): 31.5 ± 1.56 grams; Body Weight on Day 12 ([2]; 33 μg/kg intraperitoneally): 30.66 ± 2 grams; Body Weight On Day 0 ([2]; 33 μg/kg intraperitoneally): 28.9 ± 2 grams; condition of the mice at the end of treatment [4]: very sick, and most of them died"
"C=C1/C(=C\C=C2/CCC[C@]3(C)[C@@H]([C@H](C)CCCC(C)(C)O)CC[C@@H]23)C[C@@H](O)C[C@@H]1O [1,25(OH)2D3, 1-α,25-dihydroxyvitamin D3, reference compound]",no such DNA cleavage was observed,appeared normal,only inhibition of proliferation,dose-dependant antiproliferation,appeared normal,only inhibition of proliferation,most pronounced at 10^−6M,dose-dependant antiproliferation,dose-dependant antiproliferation,appeared normal,appeared normal,dose-dependant antiproliferation,appeared normal,dose-dependant antiproliferation,–
"O=C(CBr)OCc1ccccc1 [benzylbomacetate, benzylbormoacetate, reference compound]",–,–,–,–,–,–,–,no effect,no effect,–,–,–,–,–,–
"O=C(O)CBr [bromoacetic acid, reference compound]",–,–,–,–,–,–,–,no effect,no effect,–,–,–,–,–,"growth-inhibitory effect (3H-thymidine incorporation) ([12]; PC-3 cells, 10^−6M): not antiproliferative"
"C=C1/C(=C\C=C2/CCC[C@@]3(C)C2CC[C@@H]3C(C)CCCC(C)(C)O)C[C@@H](OC(=O)CBr)CC1O (stereo partly drawn) [1,25(OH)2D3-3-BE, 1α,25-dihydroxy-vitamin D3-3β-(2)-bromoacetate]",–,appeared normal,almost completely inhibited,stronger antiproliferative effect; also recorded: dose-dependant antiproliferation,appeared normal,almost completely inhibited,most pronounced at 10^−6M,stronger antiproliferative effect; also recorded: dose-dependant antiproliferation,stronger antiproliferative effect; also recorded: dose-dependant antiproliferation,appeared to have undergone apoptosis,appeared normal,stronger antiproliferative effect; also recorded: dose-dependant antiproliferation,appeared to have undergone apoptosis,stronger antiproliferative effect; also recorded: dose-dependant antiproliferation,"decrease of proliferation compared with 1,25(OH)2D3 ([8]; dose levels of 10^−6 and 10^−7M): much stronger in decreasing the proliferation than 1,25(OH)2D3; calcemic index [15]: lower calcemic index than 1,25(OH)2D3; transcription of VDR-regulated genes [16]: increased transcription; viable cell count diminished by [17]: approximately 15%; speed of cross-linking to VDR [18]: extremely rapid; viable cell count diminished by [19]: approximately 60%"
